This is an account of results in ChEMBL document CHEMBL2396520, “The development of CNS-active LRRK2 inhibitors using property-directed optimisation” (Bioorg Med Chem Lett, 2013).

SMILES strings stand for the structures. pIC50, pKi: −log10 of the molar value.

In data set [1] the target is T1, Leucine-rich repeat serine/threonine-protein kinase 2 (Homo sapiens, UniProt Q5S007, G2019S). Put plainly: Inhibition of human recombinant LRRK2 G2019S mutant using biotin-LRRKtide as substrate preincubated for 15 mins prior to substrate addition measured after 60 mins by TR-FRET assay.
T1 sequence (Q5S007 whole entry G2019S): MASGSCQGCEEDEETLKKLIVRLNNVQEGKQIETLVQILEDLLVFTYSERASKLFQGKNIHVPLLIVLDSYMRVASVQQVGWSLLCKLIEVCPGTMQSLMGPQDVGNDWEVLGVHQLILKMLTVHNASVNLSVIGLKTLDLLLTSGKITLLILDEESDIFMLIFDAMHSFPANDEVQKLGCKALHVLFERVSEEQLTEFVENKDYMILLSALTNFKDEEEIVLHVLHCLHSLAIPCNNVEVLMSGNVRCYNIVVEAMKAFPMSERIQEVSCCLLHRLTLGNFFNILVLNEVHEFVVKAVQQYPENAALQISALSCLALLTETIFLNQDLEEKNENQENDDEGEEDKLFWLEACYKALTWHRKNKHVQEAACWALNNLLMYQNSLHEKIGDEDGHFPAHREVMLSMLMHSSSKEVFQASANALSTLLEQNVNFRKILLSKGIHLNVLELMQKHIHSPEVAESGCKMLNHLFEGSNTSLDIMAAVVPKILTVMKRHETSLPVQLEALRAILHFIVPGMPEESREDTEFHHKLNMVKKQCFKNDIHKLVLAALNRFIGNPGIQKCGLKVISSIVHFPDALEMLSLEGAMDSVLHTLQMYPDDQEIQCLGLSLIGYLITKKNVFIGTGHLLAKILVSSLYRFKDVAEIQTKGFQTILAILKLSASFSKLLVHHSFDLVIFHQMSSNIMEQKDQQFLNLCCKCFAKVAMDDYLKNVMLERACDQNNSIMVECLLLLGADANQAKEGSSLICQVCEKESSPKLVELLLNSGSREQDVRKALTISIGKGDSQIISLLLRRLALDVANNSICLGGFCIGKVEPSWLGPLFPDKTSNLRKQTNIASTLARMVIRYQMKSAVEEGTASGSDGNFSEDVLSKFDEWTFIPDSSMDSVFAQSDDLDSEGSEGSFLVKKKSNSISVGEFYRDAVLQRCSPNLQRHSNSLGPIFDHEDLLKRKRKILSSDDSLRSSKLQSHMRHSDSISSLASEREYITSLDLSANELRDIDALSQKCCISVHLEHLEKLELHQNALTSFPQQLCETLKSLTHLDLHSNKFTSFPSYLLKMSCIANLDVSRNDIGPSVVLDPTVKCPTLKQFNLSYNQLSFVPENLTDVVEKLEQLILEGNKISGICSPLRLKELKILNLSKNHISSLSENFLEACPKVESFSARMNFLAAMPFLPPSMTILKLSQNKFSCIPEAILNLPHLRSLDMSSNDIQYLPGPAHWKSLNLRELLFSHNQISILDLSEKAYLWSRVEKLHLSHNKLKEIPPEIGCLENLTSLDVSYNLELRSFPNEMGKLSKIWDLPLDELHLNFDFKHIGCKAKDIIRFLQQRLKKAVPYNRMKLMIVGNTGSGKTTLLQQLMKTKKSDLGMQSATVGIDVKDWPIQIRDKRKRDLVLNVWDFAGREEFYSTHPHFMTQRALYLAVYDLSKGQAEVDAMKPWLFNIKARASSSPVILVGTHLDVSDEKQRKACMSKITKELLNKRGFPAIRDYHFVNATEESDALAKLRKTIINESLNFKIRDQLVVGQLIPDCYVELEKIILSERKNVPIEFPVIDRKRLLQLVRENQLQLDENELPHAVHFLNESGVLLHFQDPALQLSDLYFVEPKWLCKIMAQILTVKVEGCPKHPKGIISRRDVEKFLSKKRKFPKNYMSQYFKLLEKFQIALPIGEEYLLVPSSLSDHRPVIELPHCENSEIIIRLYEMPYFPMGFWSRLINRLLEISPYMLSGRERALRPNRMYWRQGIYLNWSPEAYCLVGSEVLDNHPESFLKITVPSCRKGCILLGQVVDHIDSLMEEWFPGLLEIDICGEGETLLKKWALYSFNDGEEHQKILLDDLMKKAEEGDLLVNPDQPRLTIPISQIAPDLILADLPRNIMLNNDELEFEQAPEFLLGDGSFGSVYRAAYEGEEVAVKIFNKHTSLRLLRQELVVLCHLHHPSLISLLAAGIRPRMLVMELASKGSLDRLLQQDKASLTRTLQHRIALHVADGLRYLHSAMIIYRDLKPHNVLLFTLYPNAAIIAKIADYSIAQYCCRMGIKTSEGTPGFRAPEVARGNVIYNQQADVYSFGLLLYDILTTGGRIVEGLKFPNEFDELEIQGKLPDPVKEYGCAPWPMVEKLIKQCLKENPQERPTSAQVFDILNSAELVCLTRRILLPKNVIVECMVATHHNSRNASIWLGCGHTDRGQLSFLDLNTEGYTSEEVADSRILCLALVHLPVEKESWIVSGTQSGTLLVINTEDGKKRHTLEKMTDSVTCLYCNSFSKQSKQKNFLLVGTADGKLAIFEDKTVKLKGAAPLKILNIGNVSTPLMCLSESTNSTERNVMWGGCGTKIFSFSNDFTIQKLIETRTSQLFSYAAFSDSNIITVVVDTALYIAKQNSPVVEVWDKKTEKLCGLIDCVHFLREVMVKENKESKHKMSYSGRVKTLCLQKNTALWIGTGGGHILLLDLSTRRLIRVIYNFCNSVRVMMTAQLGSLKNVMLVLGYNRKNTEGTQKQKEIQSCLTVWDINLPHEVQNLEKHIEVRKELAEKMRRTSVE
For data set [2], the target named is Leucine-rich repeat serine/threonine-protein kinase 2 (Homo sapiens, UniProt Q5S007). Put plainly: Inhibition of human recombinant wild type LRRK2 using biotin-LRRKtide as substrate preincubated for 15 mins prior to substrate addition measured after 60 mins by TR-FRET assay. On the technique in general: TR-FRET usually uses a lanthanide donor and a delayed reading to cut background.
Chain of Leucine-rich repeat serine/threonine-protein kinase 2 (Homo sapiens, UniProt Q5S007) (Q5S007 whole entry): as the sequence (Q5S007 whole entry G2019S) above, with S2019G counted along it

A further data set relates to Brain. Put plainly: Drug uptake in mouse brain at 1 mg/kg, iv. Type of data set: ADME, organism-based. Further details: dose 1 mg/kg, route intravenous. To be noted: in vivo.
Data set [3] has as its target T1, Leucine-rich repeat serine/threonine-protein kinase 2. Nature of the data set: Inhibition of GST-tagged LRRK2 (1326 to 2527 amino acids) G2019S mutant (unknown origin).

In general, pIC50 refers to the negative decadic logarithm of the IC50, by convention in mol/L. What is called pKi is the negative decadic logarithm of the Ki, by convention in mol/L. For `COc1cc(N2CCOCC2)ccc1Nc1ncc(F)c(Nc2ccccc2NS(C)(=O)=O)n1`, in data set [1], the pIC50 is 8.15 and the pKi is 8.15. Also, the pIC50 in data set [2] was 8.40. In addition, in the data set on Brain, the Drug uptake was 4%.

In data set [3], `COc1cc(C(=O)N2CCC(N3CCN(C)CC3)CC2)ccc1Nc1ncc2c(n1)N(C)c1ccccc1C(=O)N2C` had a pKi of 8.22.
